Experimental data published in US8318711B2, “Use of diacetyl trimer as an aromatic and flavouring substance” (Symrise AG, priority 2004, dated 2012).

Columns and labels:
[1] = Stability of diacetyl trimer on heating; format: physicochemical; settings: heated at 60° C. to 100° C. for 10 minutes
[2] = Tasting in sweet/salty solution (flavour profile by testers); format: in vivo; settings: 1 ppm in aqueous 5% sucrose or 0.5% sodium chloride solution, 9 testers; for flavour profile: fatty (oily): scale 1 (action scarcely perceptible) to 9 (action highly perceptible)
Protocol: The 2,5-diacetyl-3a,5,6,6a-tetrahydro-6a-hydroxy-2,3a,5-trimethylfuro[2,3-d]-1,3-dioxole from Example 1 (1 ppm diacetyl trimer in aqueous 5 wt. % sucrose or 0.5% sodium chloride solution) was investigated for its flavouring action by 9 testers. The actions found were evaluated with a scale of from 1 (action scarcely perceptible) to 9 (action highly perceptible).
For comparison, a flavour profile of diacetyl (1 ppm in aq. 5% sucrose or 0.5% sodium chloride solution) was produced under otherwise identical conditions: fatty (oily) (5), cream (5), butter (7), milk (4), condensed milk (4), fruity (2), cheesy (2), sweet (4), vanillin (2), intensity (7), impact (7), fullness (7), adhesive (5), soft (6)

| Compound | decomposition on heating [1] | flavour profile: fatty (oily) [2] | flavour profile: adhesive ([2]; scale 1 to 9) | flavour profile: butter ([2]; scale 1 to 9) | flavour profile: caramel ([2]; scale 1 to 9) | flavour profile: cream ([2]; scale 1 to 9) | flavour profile: fresh cheese/quark ([2]; scale 1 to 9) | flavour profile: fullness ([2]; scale 1 to 9) | flavour profile: impact ([2]; scale 1 to 9) | flavour profile: intensity ([2]; scale 1 to 9) | flavour profile: soft ([2]; scale 1 to 9) | flavour profile: sweet ([2]; scale 1 to 9) | flavour profile: toffee ([2]; scale 1 to 9) | flavour profile: vanillin ([2]; scale 1 to 9) | flavour profile: cheesy ([2]; scale 1 to 9) | flavour profile: condensed milk ([2]; scale 1 to 9) | flavour profile: fruity ([2]; scale 1 to 9) | flavour profile: milk ([2]; scale 1 to 9) |
| --- | --- | --- | --- | --- | --- | --- | --- | --- | --- | --- | --- | --- | --- | --- | --- | --- | --- | --- |
| CC(=O)C1(C)CC2(O)OC(C)(C(C)=O)OC2(C)O1 (racemic) [diacetyl trimer, 2,5-diacetyl-3a,5,6,6a-tetrahydro-6a-hydroxy-2,3a,5-trimethylfuro[2,3-d]-1,3-dioxole] | does not decompose | 7 | 8 | 8 | 4 | 6 | 4 | 7 | 7 | 6 | 6 | 6 | 6 | 3 | – | – | – | – |
| CC(=O)C(C)=O [diacetyl, 2,3-butanedione] | – | 5 | 5 | 7 | – | 5 | – | 7 | 7 | 7 | 6 | 4 | – | 2 | 2 | 4 | 2 | 4 |
